Experimental data reported in patent publication US7968602B2, “4-[(E)-2-(5,6,7,8-tetrahydro-5,5,8,8-tetramethyl-2-napthalenyl)-1-propenyl]benzoic acid analogs and method of manufacture and use thereof” (Wisconsin Alumni Research Foundation, priority 2005, dated 2011).
“Also recorded” adds a separate entry of the source.

Tests used:
[1] = system: T1, RARalpha, RARbeta and RARgamma; test: Nuclear RAR competition binding assay ([3H]-all-trans-RA, hydroxylapatite); design: species or system human RARalpha and RARgamma, murine RARbeta; details: for competition with [3H]-all-trans-RA for binding to the RARs: RAR types alpha, beta and gamma, stated collectively; for competition binding to RARs: compared with 4-HPTTNPB, studies 'may be performed'
T1 construct: fused on or other part: RARalpha was expressed as a fusion protein in E. coli
Procedure: Nuclear Retinoid Receptor (RAR/RXR) Binding. Competition of retinoids with [^3H]-all-trans-RA for binding to RARalpha, RARbeta and RARgamma and with [^3H]-9-cis-RA for binding to RXRgamma was determined using an in vitro ligand binding assay. (See Clagett-Dame et al., Methods for generating and characterizing retinoid receptors from E. coli and insect cell expression systems, Meth. Enzymol., 282:13-14 (1997)). Recombinant human RARalpha was expressed as a fusion protein in E. coli (see Repa J J et al., All-trans retinol is a ligand for the retinoic acid receptors, Proc Natl Acad Sci USA, 90:7293-7297 (1993)). […] Radiolabeled ligands were added to receptor-containing extracts in the absence and presence of increasing concentrations of competing ligands followed by separating ligand bound to the receptor from that free in solution using a hydroxylapatite (HAP) assay.

RXRgamma = biological target: T2, RXRgamma (Mus musculus, UniProt P28705); test: Nuclear RXR competition binding assay ([3H]-9-cis-RA, hydroxylapatite); design: species or system murine; details: for competition binding to RXRs: compared with 4-HPTTNPB, studies 'may be performed'
T2 construct: made in house; host or cells: insect cells infected with baculovirus expression vectors; nuclear extracts
T2 sequence (P28705 1-463): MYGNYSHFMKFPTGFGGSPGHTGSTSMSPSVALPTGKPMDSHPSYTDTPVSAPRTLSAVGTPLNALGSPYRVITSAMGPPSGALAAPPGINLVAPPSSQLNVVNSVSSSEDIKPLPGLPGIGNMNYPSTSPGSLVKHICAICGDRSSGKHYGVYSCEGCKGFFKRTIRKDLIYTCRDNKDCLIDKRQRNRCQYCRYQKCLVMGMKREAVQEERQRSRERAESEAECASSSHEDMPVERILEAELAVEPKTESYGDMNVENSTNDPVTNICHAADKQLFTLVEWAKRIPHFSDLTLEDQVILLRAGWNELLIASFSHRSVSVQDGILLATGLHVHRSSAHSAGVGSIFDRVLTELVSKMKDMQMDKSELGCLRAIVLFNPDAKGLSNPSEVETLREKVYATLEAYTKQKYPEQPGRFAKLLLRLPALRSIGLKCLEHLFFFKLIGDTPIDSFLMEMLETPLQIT
Procedure: Nuclear Retinoid Receptor (RAR/RXR) Binding. Competition of retinoids with [^3H]-all-trans-RA for binding to RARalpha, RARbeta and RARgamma and with [^3H]-9-cis-RA for binding to RXRgamma was determined using an in vitro ligand binding assay. […] Radiolabeled ligands were added to receptor-containing extracts in the absence and presence of increasing concentrations of competing ligands followed by separating ligand bound to the receptor from that free in solution using a hydroxylapatite (HAP) assay.

[2] = system: F9-RARE-lacZ reporter cell line; test: F9 reporter gene assay; type: cell-based; details: for potency in activating the reporter system compared with atRA and TTNPB: versus atRA and TTNPB
Excerpt: Reporter gene assay. […] Data were normalized for total protein using the method set forth in Bradford M M, Anal Biochem, 72:248-254 (1976).

MCF-7 cells [3] = test: Cell growth inhibition assay; type: cell-based, human; details: for response of MCF-7 cells (live cells / cell death): single treatment, 72 hours; for cell growth inhibition, MCF-7: compared with 4-HPTTNPB, assays 'may be performed'
Procedure: (§1) Cell growth inhibition and TUNEL assays. […] The cells were plated at 50,000 cells/well in 12-well plates. The wells were dosed with varying amounts of retinoid compounds. At cell harvest, propidium iodide was added. Half of the cells were used to determine the number of live and dead cells after adding fluorescein diacetate, which yields a fluorescent product upon cleavage by metabolically active cells. The other half were fixed in 4% paraformaldehyde, dried on aminosilane coated slides and used to determine TUNEL and propidium iodide staining.
Cell culture. The human mammary carcinoma cell line, MCF-7, may be obtained from the American Type Culture Collection (Mannassas, Va.). MCF-7 cells may be maintained in DMEM (Sigma-Aldrich) medium supplemented with 4 g/L glucose, 3.7 g/L sodium bicarbonate and 10% fetal calf serum.
Assay for cell growth inhibition. Cells are plated in flasks/wells of a tissue culture dish. After 24 hours, cells are dosed with a compound of the present invention at varying concentrations, and after 72 hours, the cells are removed from flasks/plates and counted. Fluorescence (due to staining of cells with fluorescein diacetate) was used to count the number of live cells. Phase-contrast microscopy is used to count the total number of cells.

MCF-7 cells [4] = test: TUNEL assay (DNA fragmentation); type: cell-based, human; details: for induction of apoptosis / DNA fragmentation: MCF-7 cells, 72 hours, 4-HPTTNPB and 4-HBTTNPB at the highest doses; for activity in DNA fragmentation study: compared with 4-HPTTNPB, studies 'may be performed'
Procedure: as §1

pregnant rats = test: Assessment of compound teratogenicity; type: in vivo; details: for teratogenic activity / fetal malformations: 0.66 micomoles/kg single oral bolus at E9.25, fetuses at E21.5
Procedure: Assessment of Compound Teratogenicity. Female rats (Harlan Sprague-Dawley, Madison, Wis. approximately 200 to 250 g in weight) were maintained on normal laboratory rat chow and mated with normal rats of the same strain. Pregnant rats were given a single oral bolus dose of compound dissolved in Wesson® corn oil. Each dose was 60-100 μL. The doses were given at day 9.25. Each […] was maintained under standard laboratory conditions until euthanasia at embryonic day 21.5. The fetuses were removed. Fetuses with a heartbeat were determined to be alive. The number of live and dead fetuses were recorded. The number of resorption sites was also recorded. The live fetuses were examined for gross external malformations. All animals were maintained in accordance with protocol approved by the University of Wisconsin-Madison animal care committee.

[5] = system: DMBA-induced mammary tumors; test: Inhibition of DMBA-induced mammary tumors; type: in vivo; details: studies 'may be performed'
[6] = TTNPB: at concentrations above 10^-6 M, 4-HPTTNPB and 4-HPR: at the highest concentration

For `C/C(=C\c1ccc(C(=O)O)cc1)c1ccc2c(c1)C(C)(C)CCC2(C)C` [TTNPB, E-4-[2-methyl-2-(1,1,4,4-tetramethyl-1,2,3,4-tetrahydronapth-7-yl)-vinyl]-benzoic acid, reference compound], the “competition with [3H]-all-trans-RA for binding to the RARs” value (“competition with [3H]-all-trans-RA” below) [1] was “very effective”, the “competition with [3H]-9-cis-RA for binding to RXRgamma” value (“competition with [3H]-9-cis-RA” for short) (RXRgamma; [6]) was “very weak competition” and the “competition with [3H]-9-cis-RA” value (RXRgamma; at 10^-4.5 M) was 44%. The “activity in the F9 reporter assay (beta-galactosidase)” value [2] was “highly active”, the “response of MCF-7 cells (live cells / cell death)” value (MCF-7 cells [3]) was “nearly ineffective” and the “induction of apoptosis / DNA fragmentation” value (MCF-7 cells [4]) was “ineffective”.

With `C/C(=C\c1ccc(C(=O)Cc2ccc(OC3OC(C(=O)O)C(O)C(O)C3O)cc2)cc1)c1ccc2c(c1)C(C)(C)CCC2(C)C` (stereo not shown) [Compound 25] the “competition binding to RARs” value [1] was “only slightly better at binding to RARs than 4-HPTTNPB”, the “competition binding to RXRs” value (RXRgamma) was “no better at binding to RXRs than 4-HPTTNPB” and the “cell growth inhibition, MCF-7” value (MCF-7 cells [3]) was “inhibits growth of MCF-7 cells in a dose-dependent manner; also recorded: less active than 4-HPTTNPB”. The “activity in DNA fragmentation study” value (MCF-7 cells [4]) was “less active than 4-HPTTNPB”, the “teratogenic potential / embryotoxicity” value (pregnant rats; 'the data will demonstrate') was “little, if any, observable embrotoxicity” and the “toxicity in DMBA-induced mammary tumor studies” value [5] was “little, if any, toxicity”.

For `C=C(c1ccc(C(=O)O)cc1)c1cc2c(cc1C)C(C)(C)CCC2(C)C` [LGD1069, reference compound], the “competition with [3H]-9-cis-RA” value (RXRgamma; [6]) was “very effective”.

`CC1=C(/C=C/C(C)=C/C=C/C(C)=C/C(=O)O)C(C)(C)CCC1` [atRA, all-trans retinoic acid, reference compound] was tested, and the “activity in the F9 reporter assay (beta-galactosidase)” value [2] was “highly active”.

In the case of `CC1=C(/C=C/C(C)=C/C=C/C(C)=C/C(=O)Nc2ccc(O)cc2)C(C)(C)CCC1` [4-HPR, N-(4-hydroxyphenyl) retinamide, reference compound], the “competition with [3H]-all-trans-RA” value [1] is reported as “only weak competition”, the “potency of competition for RAR binding compared with TTNPB” value ([1]; versus TTNPB) is reported as 3-4 orders of magnitude less potent and the “competition with [3H]-9-cis-RA” value (RXRgamma; [6]) is reported as “almost no competition”. For the same compound, the “potency in activating the reporter system compared with atRA and TTNPB” value [2] was “approximately 1000 fold less potent”, the “response of MCF-7 cells (live cells / cell death)” value (MCF-7 cells [3]) was “cell death” and the “induction of apoptosis / DNA fragmentation” value (MCF-7 cells [4]) was “high degree of apoptosis”.

With `CCCc1cc2c(cc1/C(C)=C/c1ccc(C(=O)Nc3ccc(O)cc3)cc1)C(C)(C)CCC2(C)C` [Compound 12, E-4-[2-methyl-2-(6-propyl-1,1,4,4-tetramethyl-1,2,3,4-tetrahydronapth-7-yl)-vinyl]-benzoic acid 4-hydroxyanilide] the “competition binding to RARs” value [1] was “bind only very weakly”, the “competition binding to RXRs” value (RXRgamma) was “only slight binding competition” and the “cell growth inhibition, MCF-7” value (MCF-7 cells [3]) was “inhibits growth of MCF-7 cells in a dose-dependent manner”.

In the case of `C/C(=C\c1ccc(C(=O)Nc2ccc(O)cc2)cc1)c1ccc2c(c1)C(C)(C)CCC2(C)C` [4-HPTTNPB, E-4-[2-methyl-2-(1,1,4,4-tetramethyl-1,2,3,4-tetrahydronapth-7-yl)-vinyl]-benzoic acid 4-hydroxyanilide], the “competition with [3H]-all-trans-RA” value [1] is reported as “competed poorly; also recorded: did not show any significant binding”, the “competition with [3H]-9-cis-RA” value (RXRgamma; [6]) is reported as “almost no competition” and the “potency in activating the reporter system compared with atRA and TTNPB” value [2] is reported as “around 100 fold less potent”. For the same compound, the “response of MCF-7 cells (live cells / cell death)” value (MCF-7 cells [3]) was “dose-dependent decrease”, the “induction of apoptosis / DNA fragmentation” value (MCF-7 cells [4]) was “very active” and the “teratogenic activity / fetal malformations” value (pregnant rats) was “all profoundly malformed”. For the same compound, the “percentage of the fetuses at embryonic day 21.5 either dead or resorbed” value (pregnant rats; 0.66 micomoles/kg single oral bolus at E9.25, three pregnant rats) was over 80%.

`C/C(=C\c1ccc(C(=O)Cc2ccc(O)cc2)cc1)c1ccc2c(c1)C(C)(C)CCC2(C)C` [4-HBTTNPB, E-4-[2-methyl-2-(1,1,4,4-tetramethyl-1,2,3,4-tetrahydronapth-7-yl)-vinyl]-phenyl-2′-(4′-hydroxyphenyl)-1′-ethanone] was tested, and the “competition with [3H]-all-trans-RA” value [1] was “competed poorly”, the “competition binding to RARs” value [1] was “bind only very weakly” and the “competition binding to RXRs” value (RXRgamma) was “only slight binding competition”. For the same compound, the “cell growth inhibition, MCF-7” value (MCF-7 cells [3]; listed as 23) was “inhibits growth of MCF-7 cells in a dose-dependent manner”, the “response of MCF-7 cells (live cells / cell death)” value (MCF-7 cells [3]) was “dose-dependent decrease” and the “induction of apoptosis / DNA fragmentation” value (MCF-7 cells [4]) was “very active”. For the same compound, the “activity in DNA fragmentation study” value (MCF-7 cells [4]) was “activity similar to 4-HPTTNPB”, the “teratogenic activity / fetal malformations” value (pregnant rats) was “devoid of any observable teratogenic activity” and the “teratogenic potential / embryotoxicity” value (pregnant rats; 'the data will demonstrate') was “little, if any, observable embrotoxicity”. For the same compound, the “number of dead and resorbed fetuses compared with vehicle group” value (pregnant rats; rat, in vivo, po) was “did not differ” and the “toxicity in DMBA-induced mammary tumor studies” value [5] was “little, if any, toxicity”.

For `C/C(=C\c1ccc(C(=O)Cc2ccc(O[C@@H]3O[C@H](CO)[C@@H](O)[C@H](O)[C@H]3O)cc2)cc1)c1ccc2c(c1)C(C)(C)CCC2(C)C` [Compound 33, E-4-[2-methyl-2-(1,1,4,4-tetramethyl-1,2,3,4-tetrahydronaphth-7-yl)-vinyl]-phenyl-2′-(4′-beta-D-glucopyranosyloxyphenyl)-1′-ethanone], the “competition binding to RARs” value [1] was “only slightly better at binding to RARs than 4-HPTTNPB”, the “competition binding to RXRs” value (RXRgamma) was “no better at binding to RXRs than 4-HPTTNPB” and the “cell growth inhibition, MCF-7” value (MCF-7 cells [3]) was “inhibits growth of MCF-7 cells in a dose-dependent manner”. The “teratogenic potential / embryotoxicity” value (pregnant rats; rat, in vivo) was “little, if any, observable embrotoxicity” and the “toxicity in DMBA-induced mammary tumor studies” value [5] was “little, if any, toxicity”.
